Patent US20030144263A1, “Oxazolidinone derivatives, process for their preparation and pharmaceutical compositions containing them” (Syngenta Limited, priority 1998, published 2003)
Values after ≈ are worked out from the molar mass of the structure shown. Like-named read-outs stand apart in the source and are kept apart here.

Key:
[1] = system: Streptococcus pyogenes C203; experiment: MIC by agar-dilution, Streptococcus pyogenes C203; format: cell-based; conditions: agar with 5% defibrinated horse blood, 10^4 CFU/spot, 37° C., 5% carbon dioxide, 48 hours
Protocol: (§1) The following results were obtained on a standard in-vitro test system. The activity is described in terms of the minimum inhibitory concentration (MIC) determined by the agar-dilution technique with an inoculum size of 10^4 CFU/spot. Typically, compounds are active in the range 0.01 to 256 μg/ml. Streptococci and enterococci were tested on agar supplemented with 5% defibrinated horse blood, an inoculum of 10^4 CFU/spot and an incubation temperature of 37° C. in an atmosphere of 5% carbon dioxide for 48 hours—blood is required for the growth of some of the test organisms.

Enterococcus faecalis = experiment: MIC by agar-dilution, Enterococcus faecalis; format: cell-based; conditions: agar with 5% defibrinated horse blood, 10^4 CFU/spot, 37° C., 5% carbon dioxide, 48 hours
Protocol: as §1

[2] = system: Staphylococcus aureus Oxford; experiment: MIC by agar-dilution, Staphylococcus aureus Oxford; format: cell-based; conditions: inoculum 10^4 CFU/spot, 37° C., 24 hours
Protocol: (§2) The following results were obtained on a standard in-vitro test system. The activity is described in terms of the minimum inhibitory concentration (MIC) determined by the agar-dilution technique with an inoculum size of 10^4 CFU/spot. Typically, compounds are active in the range 0.01 to 256 μg/ml.
(§3) Staphylococci were tested on agar, using an inoculum of 10^4 CFU/spot and an incubation temperature of 37° C. for 24 hours—standard test conditions for the expression of methicillin resistance.

[3] = system: Staphylococcus aureus Novb. Res (Novobiocin resistant); experiment: MIC by agar-dilution, Staphylococcus aureus Novb. Res; format: cell-based; conditions: inoculum 10^4 CFU/spot, 37° C., 24 hours
Protocol: as §2, §3

[4] = system: Coagulase Negative Staphylococci MR (methicillin resistant); experiment: MIC by agar-dilution, Coagulase Negative Staphylococci MR; format: cell-based; conditions: inoculum 10^4 CFU/spot, 37° C., 24 hours
Protocol: as §2, §3

[5] = system: Coagulase Negative Staphylococci MS (methicillin sensitive); experiment: MIC by agar-dilution, Coagulase Negative Staphylococci MS; format: cell-based; conditions: inoculum 10^4 CFU/spot, 37° C., 24 hours
Protocol: as §2, §3

[6] = system: Staphylococcus aureus MRQR (methicillin resistant quinolone resistant); experiment: MIC by agar-dilution, Staphylococcus aureus MRQR; format: cell-based; conditions: inoculum 10^4 CFU/spot, 37° C., 24 hours
Protocol: as §2, §3

Bacillus subtilis = experiment: MIC by agar-dilution, Bacillus subtilis; format: cell-based; conditions: inoculum 10^4 CFU/spot
Protocol: as §2

SMILES | MIC ([1]; read-out: MIC) | MIC (Enterococcus faecalis; read-out: MIC) | MIC ([2]; read-out: MIC) | MIC ([3]; read-out: MIC) | MIC ([4]; read-out: MIC) | MIC ([5]; read-out: MIC) | MIC ([6]; read-out: MIC) | MIC (Bacillus subtilis; read-out: MIC) | melting point | also measured
O=C(C(O)CO)N1CC=C(c2c(F)cc(N3C[C@H](COc4ccon4)OC3=O)cc2F)CC1 (mixture of isomers) [Example 4, 5(R)-Isoxazol-3-yloxymethyl-3-(4-(1-(2(R,S),3-dihydroxypropanoyl)-1,2,5,6-tetrahydropyrid-4-yl)-3,5-difluorophenyl)-oxazolidin-2-one] | 0.5 µg/mL | 1 µg/mL | 0.25 µg/mL | 0.5 µg/mL | 0.5 µg/mL | 0.13 µg/mL | 0.5 µg/mL | 0.25 µg/mL | – | –
O=C([C@@H](O)CO)N1CC=C(c2ccc(N3C[C@H](COc4ccon4)OC3=O)cc2)CC1 [Example 41, 5(R)-Isoxazol-3-yloxymethyl-3-(4-(1-(2(S),3-dihydroxypropanoyl)-1,2,5,6-tetrahydropyrid-4-yl)phenyl)oxazolidin-2-one] | – | – | – | – | – | – | – | – | 200 to 202 °C (dec.) | –
O=C1O[C@@H](COc2cnsn2)CN1c1ccc(C2=CCOCC2)c(F)c1 [Example 10, 5(R)-(1,2,5-Thiadiazol-3-yloxymethyl)-3-(3-fluoro-4-(3,6-dihydro-(2H)-pyran-4-yl)phenyl)oxazolidin-2-one] | – | – | – | – | – | – | – | – | 46 to 48 °C | –
CS(=O)(=O)c1ccc(N2C[C@H](COc3ccon3)OC2=O)cc1 [Example 163, 3-(4-Methylsulfonylphenyl)-5(R)-(isoxazol-3-yloxymethyl)oxazolidin-2-one] | – | – | – | – | – | – | – | – | 180 °C | –
O=C1O[C@@H](COc2cnsn2)CN1c1ccc(C2=CCOCC2)c(F)c1 [Example 142, 5(R)-1,2,5-Thiadiazol-3-yloxymethyl-3-(4-[3,6-dihydro-(2H)-pyran-4-yl]-3-fluorophenyl)oxazolidin-2-one] | – | – | – | – | – | – | – | – | 146 to 148 °C | –
O=C(CO)N1CC=C(c2ccc(N3C[C@H](COc4cnsn4)OC3=O)cc2F)CC1 [Example 151, 5(R)-1,2,5-Thiadiazol-3-yloxymethyl-3-(4-(1-hydroxyacetyl-1,2,5,6-tetrahydropyrid-4-yl)-3-fluorophenyl)oxazolidin-2-one] | – | – | – | – | – | – | – | – | – | MIC [1]: 0.25 µg/mL (≈ 0.575 µM); MIC (Enterococcus faecalis): 0.25 µg/mL (≈ 0.575 µM); MIC [2]: 0.13 µg/mL (≈ 0.299 µM); MIC [3]: 0.25 µg/mL (≈ 0.575 µM); MIC [4]: 0.25 µg/mL (≈ 0.575 µM); MIC [5]: 0.13 µg/mL (≈ 0.299 µM); MIC [6]: 0.25 µg/mL (≈ 0.575 µM); MIC (Bacillus subtilis): 0.13 µg/mL (≈ 0.299 µM)

Now from value to compound, other results behind:

MIC ([1]; read-out: MIC) | MIC (Enterococcus faecalis; read-out: MIC) | MIC ([2]; read-out: MIC) | MIC ([3]; read-out: MIC) | MIC ([4]; read-out: MIC) | MIC ([5]; read-out: MIC) | MIC ([6]; read-out: MIC) | MIC (Bacillus subtilis; read-out: MIC) | melting point | SMILES | also measured
0.25 µg/mL (≈ 0.537 µM) | 0.5 µg/mL (≈ 1.07 µM) | 0.25 µg/mL (≈ 0.537 µM) | 0.25 µg/mL (≈ 0.537 µM) | 0.5 µg/mL (≈ 1.07 µM) | 0.13 µg/mL (≈ 0.279 µM) | 0.5 µg/mL (≈ 1.07 µM) | 0.25 µg/mL (≈ 0.537 µM) | – | O=C([C@@H](O)CO)N1CC=C(c2c(F)cc(N3C[C@H](COc4ccon4)OC3=O)cc2F)CC1 [Example 18, 5(R)-Isoxazol-3-yloxymethyl-3-(4-(1-(2(S),3-dihydroxypropanoyl)-1,2,5,6-tetrahydropyrid-4-yl)-3,5-difluorophenyl)oxazolidin-2-one] | –
– | – | – | – | – | – | – | – | 138 to 144 °C | O=C([C@H](O)CO)N1CC=C(c2ccc(N3C[C@H](COc4ccon4)OC3=O)cc2)CC1 [Example 40, 5(R)-Isoxazol-3-yloxymethyl-3-(4-(1-(2(R),3-dihydroxypropanoyl)-1,2,5,6-tetrahydropyrid-4-yl)phenyl)oxazolidin-2-one] | –
– | – | – | – | – | – | – | – | 97 to 98 °C | O=C1O[C@@H](COc2cnsn2)CN1c1ccc(N2C[C@@H]3C[C@H]2CN3Cc2ccccc2)c(F)c1 [Example 154, 5(R)-1 ,2,5-Thiadiazol-3-yloxymethyl-3-(4-((1 S)(4S)-2-benzyl-2,5-diazabicyclo{2.2.1}heptan-5-yl)-3-fluorophenyl)oxazolidin-2-one] | –
0.5 µg/mL (≈ 1.12 µM) | 1 µg/mL (≈ 2.24 µM) | 0.25 µg/mL (≈ 0.559 µM) | 0.5 µg/mL (≈ 1.12 µM) | 0.5 µg/mL (≈ 1.12 µM) | 0.13 µg/mL (≈ 0.291 µM) | 0.5 µg/mL (≈ 1.12 µM) | 0.25 µg/mL (≈ 0.559 µM) | – | O=C([C@@H](O)CO)N1CC=C(c2ccc(N3C[C@H](COc4ccon4)OC3=O)cc2F)CC1 [Example 12, 5(R)-Isoxazol-3-yloxymethyl-3-(4-(1-(2(S),3-dihydroxypropanoyl)-1,2,5,6-tetrahydropyrid-4-yl)-3-fluorophenyl)oxazolidin-2-one] | –
